Experimental data from ChEMBL document CHEMBL3784999, “Investigation of 4-amino-5-alkynylpyrimidine-2(1H)-ones as anti-mycobacterial agents” (Bioorg Med Chem, 2016).
Values after ≈ are worked out from the molar mass of the structure shown. Active and inactive are the calls of the source. The calls are words filed in the database; no cut-off is given here.

Tests used:
[1] = test system: Mycobacterium tuberculosis; experiment: Antimycobacterial activity against Mycobacterium tuberculosis H37Ra assessed as inhibition of mycobacterial replication at 0.05 ug/ml after 6 days by microplate Alamar blue assay in absence of isoniazid; format: functional; details: 144 h
[2] = test system: Mycobacterium tuberculosis; experiment: Antimycobacterial activity against Mycobacterium tuberculosis H37Ra infected in BALB/c mouse assessed as reduction of bacterial load in lung at 1 mg/kg, po administered for 2 weeks started on day 4 post bacterial infection measured 3 days post last dose; format: functional, organism-based
[3] = test system: Mycobacterium tuberculosis; experiment: Antimycobacterial activity against Mycobacterium tuberculosis H37Ra infected in BALB/c mouse assessed as reduction of bacterial load in liver at 1 mg/kg, po administered for 2 weeks started on day 4 post bacterial infection measured 3 days post last dose; format: functional, organism-based
[4] = test system: Mycobacterium tuberculosis; experiment: Antimycobacterial activity against Mycobacterium tuberculosis H37Ra infected in BALB/c mouse assessed as reduction of bacterial load in spleen at 1 mg/kg, po administered for 2 weeks started on day 4 post bacterial infection measured 3 days post last dose; format: functional, organism-based
[5] = test system: Mycobacterium tuberculosis; experiment: Antimycobacterial activity against Mycobacterium tuberculosis H37Ra assessed as inhibition of mycobacterial replication after 6 days by microplate Alamar blue assay; format: functional; details: 144 h
[6] = test system: Mycobacterium tuberculosis; experiment: Antimycobacterial activity against Mycobacterium tuberculosis H37Ra assessed as inhibition of mycobacterial replication at 6.25 ug/ml after 6 days by microplate Alamar blue assay in presence of isoniazid; format: functional; details: 144 h
[7] = test system: Mycobacterium tuberculosis; experiment: Antimycobacterial activity against Mycobacterium tuberculosis H37Ra assessed as inhibition of mycobacterial replication at 6.25 ug/ml after 6 days by microplate Alamar blue assay in absence of isoniazid; format: functional, organism-based
[8] = test system: Mycobacterium tuberculosis; experiment: Ratio MIC90 for Mycobacterium tuberculosis H37Ra in presence of isoniazid to MIC90 for Mycobacterium tuberculosis H37Ra in absence of isoniazid; format: functional
[9] = test system: Mycobacterium tuberculosis; experiment: Antimycobacterial activity against Mycobacterium tuberculosis H37Ra infected in BALB/c mouse assessed as reduction of bacterial load in lung at 25 mg/kg, po administered for 2 weeks started on day 4 post bacterial infection measured 3 days post last dose; format: functional
[10] = test system: Mycobacterium tuberculosis; experiment: Antimycobacterial activity against Mycobacterium tuberculosis H37Ra infected in BALB/c mouse assessed as reduction of bacterial load in liver at 25 mg/kg, po administered for 2 weeks started on day 4 post bacterial infection measured 3 days post last dose; format: functional
[11] = test system: Mycobacterium tuberculosis; experiment: Antimycobacterial activity against Mycobacterium tuberculosis H37Ra infected in BALB/c mouse assessed as reduction of bacterial load in spleen at 25 mg/kg, po administered for 2 weeks started on day 4 post bacterial infection measured 3 days post last dose; format: functional
[12] = test system: Mycobacterium tuberculosis; experiment: Antimycobacterial activity against Mycobacterium tuberculosis H37Ra infected in BALB/c mouse assessed as reduction of bacterial load in lung at 12.5 mg/kg, po administered for 2 weeks started on day 4 post bacterial infection measured 3 days post last dose co-treated with 1 mg/kg, po isoniazid; format: functional
[13] = test system: Mycobacterium tuberculosis; experiment: Antimycobacterial activity against Mycobacterium tuberculosis H37Ra infected in BALB/c mouse assessed as reduction of bacterial load in spleen at 12.5 mg/kg, po administered for 2 weeks started on day 4 post bacterial infection measured 3 days post last dose co-treated with 1 mg/kg, po isoniazid; format: functional
Mus musculus [14] = experiment: Toxicity in BALB/c mouse infected with Mycobacterium tuberculosis H37Ra assessed as weight loss at 6.25 to 25 mg/kg, po administered for 2 weeks started on day 4 post bacterial infection; format: organism-based; details: in vivo, 336 h
Mus musculus [15] = experiment: Toxicity in BALB/c mouse infected with Mycobacterium tuberculosis H37Ra assessed as behavioral changes at 6.25 to 25 mg/kg, po administered for 2 weeks started on day 4 post bacterial infection; format: organism-based; details: in vivo, 336 h
Mus musculus [16] = experiment: Toxicity in BALB/c mouse infected with Mycobacterium tuberculosis H37Ra assessed as change in urea level in serum at 6.25 to 25 mg/kg, po administered for 2 weeks started on day 4 post bacterial infection; format: organism-based; details: in vivo, 336 h
Mus musculus [17] = experiment: Toxicity in BALB/c mouse infected with Mycobacterium tuberculosis H37Ra assessed as change in creatinine level in serum at 6.25 to 25 mg/kg, po administered for 2 weeks started on day 4 post bacterial infection; format: organism-based; details: in vivo, 336 h
Mus musculus [18] = experiment: Toxicity in BALB/c mouse infected with Mycobacterium tuberculosis H37Ra assessed as change in phosphate level in serum at 6.25 to 25 mg/kg, po administered for 2 weeks started on day 4 post bacterial infection; format: organism-based; details: in vivo, 336 h
Mus musculus [19] = experiment: Toxicity in BALB/c mouse infected with Mycobacterium tuberculosis H37Ra assessed as change in calcium level in serum at 6.25 to 25 mg/kg, po administered for 2 weeks started on day 4 post bacterial infection; format: organism-based; details: in vivo, 336 h
Mus musculus [20] = experiment: Toxicity in BALB/c mouse infected with Mycobacterium tuberculosis H37Ra assessed as change in cholesterol level in serum at 6.25 to 25 mg/kg, po administered for 2 weeks started on day 4 post bacterial infection; format: organism-based; details: in vivo, 336 h
Mus musculus [21] = experiment: Toxicity in BALB/c mouse infected with Mycobacterium tuberculosis H37Ra assessed as change in alkaline phosphatase level in serum at 6.25 to 25 mg/kg, po administered for 2 weeks started on day 4 post bacterial infection; format: organism-based; details: in vivo, 336 h
Mus musculus [22] = experiment: Toxicity in BALB/c mouse infected with Mycobacterium tuberculosis H37Ra assessed as change in amylase level in serum at 6.25 to 25 mg/kg, po administered for 2 weeks started on day 4 post bacterial infection; format: organism-based; details: in vivo, 336 h
Mus musculus [23] = experiment: Toxicity in BALB/c mouse infected with Mycobacterium tuberculosis H37Ra at 6.25 to 25 mg/kg, po administered for 2 weeks started on day 4 post bacterial infection by necroscopy; format: organism-based; details: in vivo, 336 h
Mus musculus [24] = experiment: Toxicity in BALB/c mouse infected with Mycobacterium tuberculosis H37Ra at 6.25 to 25 mg/kg, po administered for 2 weeks started on day 4 post bacterial infection by necroscopy in presence of isoniazid; format: organism-based; details: in vivo, 336 h
Mus musculus [25] = experiment: Toxicity in BALB/c mouse infected with Mycobacterium tuberculosis H37Ra assessed as weight loss at 6.25 to 25 mg/kg, po administered for 2 weeks started on day 4 post bacterial infection in presence of isoniazid; format: organism-based; details: in vivo, 336 h
Mus musculus [26] = experiment: Toxicity in BALB/c mouse infected with Mycobacterium tuberculosis H37Ra assessed as behavioral changes at 6.25 to 25 mg/kg, po administered for 2 weeks started on day 4 post bacterial infection in presence of isoniazid; format: organism-based; details: in vivo, 336 h
Mus musculus [27] = experiment: Toxicity in BALB/c mouse infected with Mycobacterium tuberculosis H37Ra assessed as change in urea level in serum at 6.25 to 25 mg/kg, po administered for 2 weeks started on day 4 post bacterial infection in presence of isoniazid; format: organism-based; details: in vivo, 336 h
Mus musculus [28] = experiment: Toxicity in BALB/c mouse infected with Mycobacterium tuberculosis H37Ra assessed as change in creatinine level in serum at 6.25 to 25 mg/kg, po administered for 2 weeks started on day 4 post bacterial infection in presence of isoniazid; format: organism-based; details: in vivo, 336 h
Mus musculus [29] = experiment: Toxicity in BALB/c mouse infected with Mycobacterium tuberculosis H37Ra assessed as change in phosphate level in serum at 6.25 to 25 mg/kg, po administered for 2 weeks started on day 4 post bacterial infection in presence of isoniazid; format: organism-based; details: in vivo, 336 h
Mus musculus [30] = experiment: Toxicity in BALB/c mouse infected with Mycobacterium tuberculosis H37Ra assessed as change in calcium level in serum at 6.25 to 25 mg/kg, po administered for 2 weeks started on day 4 post bacterial infection in presence of isoniazid; format: organism-based; details: in vivo, 336 h
Mus musculus [31] = experiment: Toxicity in BALB/c mouse infected with Mycobacterium tuberculosis H37Ra assessed as change in cholesterol level in serum at 6.25 to 25 mg/kg, po administered for 2 weeks started on day 4 post bacterial infection in presence of isoniazid; format: organism-based; details: in vivo, 336 h
Mus musculus [32] = experiment: Toxicity in BALB/c mouse infected with Mycobacterium tuberculosis H37Ra assessed as change in alkaline phosphatase level in serum at 6.25 to 25 mg/kg, po administered for 2 weeks started on day 4 post bacterial infection in presence of isoniazid; format: organism-based; details: in vivo, 336 h
Mus musculus [33] = experiment: Toxicity in BALB/c mouse infected with Mycobacterium tuberculosis H37Ra assessed as change in amylase level in serum at 6.25 to 25 mg/kg, po administered for 2 weeks started on day 4 post bacterial infection in presence of isoniazid; format: organism-based; details: in vivo, 336 h
[34] = Cytotoxicity against African green monkey Vero cells assessed as cell viability after 3 days by XTT assay; format: cell-based; details: chlorocebus sabaeus
Mus musculus [35] = experiment: Toxicity in BALB/c mouse infected with Mycobacterium tuberculosis H37Ra assessed as gross necroscopy changes at 6.25 to 25 mg/kg, po administered for 2 weeks started on day 4 post bacterial infection; format: organism-based; details: in vivo, 336 h

With `NNC(=O)c1ccncc1` [ISONIAZID] the inhibition at 0.05 µg/mL [1] was 10%, the Activity [2] was “inactive” and the Activity [3] was “inactive”. For the same compound, the Activity [4] was “inactive”.

For `Nc1nc(=O)[nH]cc1C#Cc1ccccc1`, the MIC50 [5] was 25 µg/mL (≈ 118 µM), the inhibition at 6.25 µg/mL [6] was 100% and the inhibition [7] was “inactive”. For the same compound, the “fractional inhibitory concentration index (FICI)” value [8] was 0.25, the inhibition [9] was “inactive” and the inhibition [10] was “inactive”. The inhibition [11] was “inactive”, the “inhibition (INH)” value [12] was 70% and the “inhibition (INH)” value [13] was 45%. The Activity (Mus musculus [14]) was “Non-toxic”, the Activity (Mus musculus [15]) was “Non-toxic” and the Activity (Mus musculus [16]) was “Non-toxic”. The Activity (Mus musculus [17]) was “Non-toxic”, the Activity (Mus musculus [18]) was “Non-toxic” and the Activity (Mus musculus [19]) was “Non-toxic”. For the same compound, the Activity (Mus musculus [20]) was “Non-toxic”, the Activity (Mus musculus [21]) was “Non-toxic” and the Activity (Mus musculus [22]) was “Non-toxic”. The Activity (Mus musculus [23]) was “Non-toxic”, the Activity (Mus musculus [24]) was “Non-toxic” and the Activity (Mus musculus [25]) was “Non-toxic”. The Activity (Mus musculus [26]) was “Non-toxic”, the Activity (Mus musculus [27]) was “Non-toxic” and the Activity (Mus musculus [28]) was “Non-toxic”. The Activity (Mus musculus [29]) was “Non-toxic”, the Activity (Mus musculus [30]) was “Non-toxic” and the Activity (Mus musculus [31]) was “Non-toxic”. For the same compound, the Activity (Mus musculus [32]) was “Non-toxic”, the Activity (Mus musculus [33]) was “Non-toxic” and the CC50 at 72 h [34] was greater than 200 µg/mL. The Activity (Mus musculus [35]) was “Non-toxic”.
